The text below walks through data of patent publication US20240076394A1, “MODULATING THE IMMUNE RESPONSE USING ANTI-CD30 ANTIBODY-DRUG CONJUGATES” (Seagen Inc., priority 2020, published 2024).

“Also recorded” adds a separate entry of the source.

In assay [1] the test system is xenograft models of Hodgkin disease. The note with it: SCID mouse xenograft models of Hodgkin disease; cited from earlier work.
For another assay, the system named is CD30+ cell lines. Conditions: in vitro; cited from earlier work.
Assay [2] has as its system CD30+ inducible T regulatory cells (iTregs). In words: In vitro depletion of CD30+ inducible T regulatory cells (flow cytometry live cell counts). Conditions: iTregs from normal donors, CD3/CD28 beads 1:4 and 10 ng/ml IL-2, 4-5 days, titration of ADC; compared to non-binding control ADC hIgG-7782; FIG. 1A. The format is cell-based, human. The procedure: The ability of the anti-CD30 antibody-drug conjugate SGN-CD30C to deplete CD30+T regulatory (Tregs) was assessed in vitro. Inducible T regulatory cells (iTregs) were differentiated from cryopreserved CD4^+ T cells of two normal donors (Cellero, Bothell, Washington, Cat #1023) in X-Vivo 15 media (Lonza, Cat #04-418Q) supplemented with 50 ng/ml TGFβ1 (R&D, cat #100-B), 50 ng/ml IL-2 (R&D, Cat #202-IL/CF) and a 1:100 dilution of Lipid Mixture 1 (Sigma, Cat #L0288-100 ml) with CD3/CD28 beads (Miltenyi, Cat #130-095-345) at a 1:20 bead:cell ratio for 6 days at 37° C. and 5% CO2, followed by 2 days resting in X-Vivo 15 media only. Differentiated iTregs were then immunophenotyped prior to in vitro cytotoxicity assays with a viability dye and fluorescently labeled anti-human CD3, CD4, CD8, CD25 and Foxp3 (Biolegend and BD Pharmingen), and analyzed on an Attune NxT Flow Cytometer (Life Technologies). Following differentiation, the iTreg populations were 38% and 53% CD25^+FoxP3^+. Inducible Tregs from 3 additional normal donors were also ordered directly from Cellero (Cat #1042). […]
In general terms: A flow cytometer gives signals particle by particle.

Assay [3] relates to CD4+CD127lowCD25+ peripheral blood Tregs (CD30+). The experiment in a line: In vitro depletion of CD30+ peripheral blood T regulatory cells (flow cytometry live cell counts). Format: cell-based, human. The note with it: peripheral blood Tregs from 2 normal donors, CD3/CD28 beads 1:4 and 10 ng/ml IL-2, 4-5 days, titration of ADC; compared to non-binding control ADC hIgG-7782; FIG. 1B. The method, then: Cryopreserved inducible Tregs from 5 normal donors and CD4^+CD127^lowCD25^+ peripheral blood Tregs from 2 normal donors (Cellero and Stem Cell Technologies) were washed and resuspended in RPMI 1640 media containing 10% FBS and put into culture with CD3/CD28 beads at a 1:4 bead:cell ratio and 10 ng/ml IL-2 for 4-5 days in a 96-well round bottom plate at 37° C. and 5% CO2 in a titration of cAC10-7782 or non-specific control hIgG-7782. At the end of the incubation, cells were washed and stained with a Zombie Aqua viability dye and CD30 PE (Biolegend), and both total and CD30^+ live cell counts were determined using an Attune Nxt Flow cytometer. Untreated inducible Tregs were 37-80% CD30^+ and peripheral Tregs were 33-68% CD30^+ at the conclusion of the assay.
Cell counts are shown as the percent of untreated control.

Consider “cAC10: chimeric IgG1 monoclonal antibody that specifically binds CD30”, for which the antitumor activity entry in assay [1] is reported as “pronounced antitumor activity”. Moreover, in the assay with CD30+ cell lines, the “growth arrest of CD30+ cell lines” value is “induces growth arrest”.

B1: SGN-CD30C: antibody-drug conjugate of Formula (IC): L is anti-CD30 antibody brentuximab, y is 1, z is 8, p is 8 (conjugate)
VH: QIQLQQSGPEVVKPGASVKISCKASGYTFTDYYITWVKQKPGQGLEWIGWIYPGSGNTKYNEKFKGKATLTVDTSSSTAFMQLSSLTSEDTAVYFCANYGNYWFAYWGQGTQVTVSA
VL: DIVLTQSPASLAVSLGQRATISCKASQSVDFDGDSYMNWYQQKPGQPPKVLIYAASNLESGIPARFSGSGSGTDFTLNIHPVEEEDAATYYCQQSNEDPWTFGGGTKLEIK
Take B1: the “total CD30+ iTreg count (percent of untreated control)” value in assay [2] is “depleted; also recorded: dose-dependent reduction”. Also, in assay [3], the “peripheral blood CD30+ Treg count (percent of untreated control)” value is “depleted; also recorded: dose-dependent reduction”.
